This note sets out measurements from patent US10835524B2, “Compositions for the treatment of pancreatic cancer and uses thereof” (University of Florida Research Foundation, Incorporated, priority 2015, dated 2020).

The subject of experiment [1] is 4 KRAS mutant PDAC cell lines (MIA PaCa-2, Panc-1, T182, E549). The experiment can be described thus: Viability of KRAS mutant PDAC cell lines after single-drug treatment, MTT assay at 72 hours. Type of experiment: cell-based, human; murine. The following applies: 4 PDAC cell lines. The protocol:
We treated each cell line with the mTOR inhibitor Everolimus, the AKT inhibitor MK-2206, the dual PI-3K/mTOR inhibitor BEZ235, and the MEK inhibitor Selumetinib, or Compound P (mefloquine), prior to viability assessment at 72 hours via MTT assay.
To determine optimal doses for combination, we first analyzed the viability dose-response curves for each drug. […] The optimal dose for each drug was then serially diluted by one-half from the chosen optimal dose to 1/32nd of the chosen optimal dose, such that six combination points could be analyzed. Because the ratio of each drug in each experiment remained constant in all serial dilutions, we refer to this method as the “fixed molar ratio method”.

A further experiment concerns the target human TS (Homo sapiens, UniProt P04818). The experiment can be described thus: Inhibition of the enzymatic activity of thymidylate synthase. Type of experiment: biochemical.
Another experiment relates to PDAC. The experiment can be described thus: Inhibition of PDAC in vivo by combination with KRAS/PI-3K/AKT/mTOR pathway inhibitors. The following applies: partner inhibitors not named.

Sequence of human TS (P04818 whole entry): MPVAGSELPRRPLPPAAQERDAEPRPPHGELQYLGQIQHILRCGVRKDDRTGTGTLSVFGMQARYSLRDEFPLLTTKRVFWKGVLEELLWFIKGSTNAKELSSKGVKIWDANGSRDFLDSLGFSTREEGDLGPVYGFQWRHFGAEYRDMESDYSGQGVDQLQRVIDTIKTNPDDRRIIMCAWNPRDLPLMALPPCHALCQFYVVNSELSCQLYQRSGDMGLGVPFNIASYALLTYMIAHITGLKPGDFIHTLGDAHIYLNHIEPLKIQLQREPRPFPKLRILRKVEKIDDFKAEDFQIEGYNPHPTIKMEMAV

With `CO[C@H]1C[C@@H]2CC[C@@H](C)[C@@](O)(O2)C(=O)C(=O)N2CCCC[C@H]2C(=O)O[C@H]([C@H](C)C[C@@H]2CC[C@@H](OCCO)[C@H](OC)C2)CC(=O)[C@H](C)/C=C(\C)[C@@H](O)[C@@H](OC)C(=O)[C@H](C)C[C@H](C)/C=C/C=C/C=C/1C` [Everolimus, (1S,9R,15R,16E,18R,19R,21S,23R,24E,26E,28E,30S,32R,35S)-1,18-dihydroxy-12-[(2S)-1-[(1S,3R,4R)-4-(2-hydroxyethoxy)-3-methoxycyclohexyl]propan-2-yl]-19,30-dimethoxy-15,17,21,23,29,35-hexamethyl-11,36-dioxa-4-azatricyclo[30.3.1.0^4,^9]hexatriaconta-16,24,26,28-tetraene-2,3,10,14,20-pentone], the “growth inhibition effect on cell viability” value (“growth inhibition effect” below) in experiment [1] is recorded as “potently cytostatic”.
As for `Cl.Cl.NC1(c2ccc(-c3nc4ccn5c(=O)[nH]nc5c4cc3-c3ccccc3)cc2)CCC1` [MK-2206, 8-[4-(1-aminocyclobutyl)phenyl]-9-phenyl-2H-[1,2,4]triazolo[3,4-f][1,6]naphthyridin-3-one; dihydrochloride], the “growth inhibition effect” value in experiment [1] is on record as “fully cytotoxic in 3 out of 4 cell lines”.
Turning to `OC(c1cc(C(F)(F)F)nc2c(C(F)(F)F)cccc12)C1CCCCN1` (stereo not drawn) [Compound P, [2,8-bis(trifluoromethyl)quinolin-4-yl]-piperidin-2-ylmethanol], the “mode of inhibition of the enzymatic activity of human TS” value at human TS is given as “partial mixed-type”. Further, the “synergy with inhibitors of the KRAS/PI-3K/AKT/mTOR pathway to inhibit PDAC in vivo” value with PDAC was “synergizes”. For the same compound, the “growth inhibition effect” value in experiment [1] is “cytotoxic in all cell lines tested”.
Consider `Cn1c(=O)n(-c2ccc(C(C)(C)C#N)cc2)c2c3cc(-c4cnc5ccccc5c4)ccc3ncc21` [BEZ235, 2-methyl-2-[4-(3-methyl-2-oxo-8-quinolin-3-ylimidazo[4,5-c]quinolin-1-yl)phenyl]propanenitrile], for which the “growth inhibition effect” value in experiment [1] is “fully cytotoxic in 3 out of 4 cell lines”.
